Data on 18 compounds can be found in US11833162B2, “Macrocyclic derivatives, process for preparing same and pharmaceutical compositions containing same” (LES LABORATOIRES SERVIER, priority 2017, dated 2023).

Experiment [1] concerns the target Bcl-2 protein (histag-Bcl-2, UniProtKB P10415) (Homo sapiens, UniProt P10415). Briefly: Inhibition of Bcl-2 by the fluorescence polarisation technique. It is filed as binding. Conditions: for IC50: fluorescence polarisation, 2 hours incubation, read-out: IC50 (μM) Bcl-2 FP. Here is the method: The fluorescence polarisation tests were carried out on microplates (384 wells). The Bcl-2 protein, labelled (histag-Bcl-2 such that Bcl-2 corresponds to the UniProtKB® primary accession number: P10415), at a final concentration of 5×10^−9M, is mixed with a fluorescent peptide (Fluorescein-REIGAQLRRMADDLNAQY), at a final concentration of 1.00×10^−9M in a buffer solution (Hepes 10 mM, NaCl 150 mM, Tween20 0.05%, pH 7.4), in the presence or absence of increasing concentrations of test compounds. After incubation for 2 hours, the fluorescence polarisation is measured.

Experiment [2] relates to RS4; 11 leukaemia tumour line. The experiment is described as follows: In vitro cytotoxicity, Microculture Tetrazolium Assay (MTT). It is filed as cell-based. Conditions: 11 cells, 48 hours exposure. Here is the method: The cytotoxicity studies were carried out on the RS4; 11 leukaemia tumour line.
The cells are distributed onto microplates and exposed to the test compounds for 48 hours.
The cell viability is then quantified by a colorimetric assay, the Microculture Tetrazolium Assay (Cancer Res., 1987, 47, 939-942).

Sequence of Bcl-2 protein (P10415 whole entry): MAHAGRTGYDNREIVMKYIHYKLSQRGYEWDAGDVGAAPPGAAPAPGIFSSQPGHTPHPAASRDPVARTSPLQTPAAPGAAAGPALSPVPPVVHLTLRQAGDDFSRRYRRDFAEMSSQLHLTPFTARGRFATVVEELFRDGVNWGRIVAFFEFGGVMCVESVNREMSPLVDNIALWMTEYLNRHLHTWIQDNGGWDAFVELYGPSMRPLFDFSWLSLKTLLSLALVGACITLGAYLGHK

As to `Cc1c2cc(n1C)-c1cc(Cl)ccc1C(=O)N1Cc3cccc(c3CC1C)OCCCc1c(cc(C#N)n1C)N(c1ccc(O)cc1)C2=O` (single isomer, unassigned) [Example 25, (16R or S)-11-Chloro-4-(4-hydroxyphenyl)-1,7,8,16-tetramethyl-5,14-dioxo-4,5,8,16,17,23,24,25-octahydro-1H,14H-15,18-methano-6,9-(metheno)dibenzo[b,h]-pyrrolo[3,2-p][1,6,11,15]oxatriazacycloicosine-2-carbonitrile], the IC50 came to 0.268 µM in experiment [1] and 809 nM in experiment [2].
On to `Cc1c2cc(n1C)-c1cc(Cl)ccc1CN1CCc3c(cccc3OCCCc3c(cnn3C)N(c3ccc(O)cc3)C2=O)C1` [Example 11, 11-Chloro-4-(4-hydroxyphenyl)-1,7,8-trimethyl-4,16,17,23,24,25-hexahydro-1H,14H-15,18-methano-6,9-(metheno)dibenzo[b,h]pyrazolo[4,3-p]-[1,6,11,15]oxatriazacycloicosin-5(8H)-one], for which the IC50 in experiment [1] stood at 0.157 µM; in experiment [2] (Homo sapiens, RS4-11, 48 h) it was 448 nM.
On the same counts, the results for `Cc1c2cc(n1C)-c1cc(Cl)ccc1C(=O)N1Cc3cccc(c3C1)OCCc1c(cnn1C)N(c1ccc(O)cc1)C2=O` [Example 24, 11-Chloro-4-(4-hydroxyphenyl)-1,7,8-trimethyl-1,4,22,23-tetrahydro-14H,16H-15,17-methano-6,9-(metheno)dibenzo[b,g]pyrazolo[4,3-o][1,5,10,14]oxatriaza-cyclooctadecine-5,14(8H)-dione] are 0.0149 µM and 106 nM.
Consider `Cc1c2cc(n1C)-c1cc(Cl)ccc1C(=O)N1Cc3cccc(c3CC1C)OCCCc1c(cc(C#N)n1C)N(c1ccc(O)cc1)C2=O` (single isomer, unassigned) [Example 26, (16S or R)-11-Chloro-4-(4-hydroxyphenyl)-1,7,8,16-tetramethyl-5,14-dioxo-4,5,8,16,17,23,24,25-octahydro-1H,14H-15,18-methano-6,9-(metheno)-dibenzo[b,h]pyrrolo[3,2-p][1,6,11,15]oxatriazacycloicosine-2-carbonitrile], for which the IC50 in experiment [1] turned out to be 0.0041 µM; in experiment [2], 1.66 nM.
Consider `Cc1c2cc(n1C)-c1cc(F)ccc1C(=O)N1CCc3c(cccc3OCCc3c(cnn3C)N(c3ccc(O)cc3)C2=O)C1` [Example 20, 11-Fluoro-4-(4-hydroxyphenyl)-1,8-trimethyl-1,4,16,17,23,24-hexahydro-14H-15,18-methano-6,9-(metheno)dibenzo[l,r]pyrazolo[3,4-d][1,6,10,15]oxatriazacyclo-nonadecine-5,14(8H)-dione], for which the IC50 in experiment [1] worked out at 0.0123 µM; in experiment [2] (Homo sapiens, RS4-11, 48 h) it was 81.2 nM.
On to `Cc1c2cc(n1C)-c1cc(Cl)ccc1C(=O)N1CCc3c(cccc3OCCN(C)CCOc3ncc(cn3)N(c3ccc(O)cc3)C2=O)C1` [Example 44, 10-Chloro-2-(4-hydroxyphenyl)-5,6,27-trimethyl-24,30-dioxa-2,6,15,27,32,35-hexaazahexacyclo[29.2.2.1˜4,7˜.1˜15,19˜.0˜8,13˜.0˜18,23˜]hepta-triaconta-1(33),4,7(37),8,10,12,18,20,22,31,34-undecaene-3,14-dione], for which the IC50 in experiment [1] stood at 0.00497 µM; in experiment [2] (Homo sapiens, RS4-11, 48 h), 35.4 nM.
The corresponding values for `Cc1c(N2C(=O)c3cc(n(C)c3C)-c3ccccc3C(=O)N3CCC(CCOc4cc(O)ccc42)CC3)cc(C#N)n1C` [Example 28, 4-[3-Hydroxy-18,19-dimethyl-12,21-dioxo-7,8,9,10,18,21-hexahydro-6H,12H,22H-8,11-ethano-20,17-(metheno)dibenzo[b,j][1,4,8,13]oxatriazacycloocta-decin-22-yl]-1,5-dimethyl-1H-pyrrole-2-carbonitrile] are 0.0288 µM and 401 nM.
The corresponding values for `Cc1c2cc(n1C)-c1cc(Cl)ccc1C(=O)N1CCc3c(cccc3OCCCc3cc(C#N)cc(c3)N(c3ccc(O)cc3)C2=O)C1` [Example 9, 6-Chloro-14-(4-hydroxyphenyl)-10,11-dimethyl-2,13-dioxo-23-oxa-1,10,14-triazahexacyclo[26.3.1.1˜9,12˜.1˜15,19˜.0˜3,8˜.0˜24,29˜]tetratriaconta-3,5,7,9(34),11.15 (33),16,18,24,26,28-undecaene-17-carbonitrile] are 0.0023 µM and 5.24 nM.
On the same counts, the results for `Cc1c2cc(n1C)-c1cc(Cl)ccc1C(=O)N1CCc3c(cccc3OCCc3c(cc(C#N)n3C)N(c3ccc(O)cc3)C2=O)C1` [Example 19, 11-Chloro-4-(4-hydroxyphenyl)-1,7,8-trimethyl-5,14-dioxo-1,4,5,8,16,17,23,24-octahydro-14H-15,18-methano-6,9-(metheno)dibenzo[l,r]pyrrolo-[2,3-d][1,6,10,15]oxatriazacyclononadecine-2-carbonitrile] are 0.0055 µM and 10.3 nM.
On to `Cc1c2cc(n1C)-c1cc(Cl)ccc1C(=O)N1CCc3c(cccc3OCCCCn3c(C#N)cc(c3C)N(c3ccc(O)cc3)C2=O)C1` [Example 7, 6-Chloro-14-(4-hydroxyphenyl)-10,11,33-trimethyl-2,13-dioxo-23-oxa-1,10,14,18-tetraazahexacyclo[26.3.1.1˜9,12˜.1˜15,18˜.0˜3,8˜.0˜24,29˜]tetratriaconta-3,5,7,9(34),11,15(33),16,24,26,28-decaene-17-carbonitrile], for which the IC50 was 0.003 µM in experiment [1] and 4.94 nM in experiment [2] (Homo sapiens, RS4-11, 48 h).
`Cc1c2cc(n1C)-c1cc(Cl)ccc1C(=O)N1CCc3c(cccc3OCCC[n+]3cccc(c3)N(c3ccc(O)cc3)C2=O)C1` [Example 30, 6-Chloro-14-(4-hydroxyphenyl)-10,11-dimethyl-2,13-dioxo-23-oxa-1,10,14-triaza-19-azoniahexacyclo[26.3.1.1˜9,12˜.1˜15,19˜.0˜3,8˜.0˜24,29˜]tetratriaconta-3,5,7,9(34),11,15(33),16,18,24,26,28-undecaene trifluoromethanesulphonate]: the IC50 in experiment [1] is 0.0314 µM; in experiment [2] (Homo sapiens, RS4-11, 48 h), > 1880 nM.
The corresponding values for `Cc1c2cc(n1C)-c1cc(Cl)ccc1C(=O)N1CCc3c(cccc3OCCCCn3cc(cn3)N(c3ccc(O)cc3)C2=O)C1` [Example 15, Chloro-14-(4-hydroxyphenyl)-10,11-dim ethyl-23-oxa-1,10,14,17,18-pentaazahexacyclo[26.3.1.1˜9,12˜.1˜15,18˜.0˜3,8˜.0˜24,29˜]tetratriaconta-3,5,7, 9(34),11,15(33),16,24,26,28-deca ene-2,13-dione] are 0.0037 µM and 11.6 nM.
Regarding `Cc1c2cc(n1C)-c1cc(Cl)ccc1C(=O)N1CCc3c(cccc3OCCCOc3cccc(c3)N(c3ccc(O)cc3)C2=O)C1` [Example 2, 6-Chloro-14-(4-hydroxyphenyl)-10,11-dimethyl-20,24-dioxa-1,10,14-triazahexacyclo[27.3.1.1˜9,12˜.1˜15,19˜.0˜3,8˜.0˜25,30˜]pentatriaconta-3,5,7,9(35),11,15(34),16,18,25,27,29-undecaene-2,13-dione], the IC50 stood at 0.0044 µM in experiment [1] and 179 nM in experiment [2] (Homo sapiens, RS4-11, 48 h).
Take `Cc1c2cc(n1C)-c1cc(Cl)ccc1C(=O)N1Cc3ccccc3C(CCOc3c(cnn3C)N(c3ccc(O)cc3)C2=O)C1` (stereo not drawn) [Example 22, 11-Chloro-4-(4-hydroxyphenyl)-1,7,8-trimethyl-1,4,16,21,22,23-hexahydro-14H-15,21-methano-6,9-(metheno)dibenzo[j,o]pyrazolo[3,4-b][1,4,8,13]oxatriaza-cyclononadecine-5,14(8H)-dione]: the IC50 in experiment [1] is 0.0153 µM; in experiment [2] (Homo sapiens, RS4-11, 48 h), 11.8 nM.
For `Cc1c2cc(n1C)-c1cc(Cl)ccc1C(=O)N1CCc3c(cccc3OCCn3c(C)ncc(c3=O)N(c3ccc(O)cc3)C2=O)C1` [Example 31, 6-Chloro-14-(4-hydroxyphenyl)-10,11,18-trimethyl-22-oxa-1,10,14,17,19-pentaazahexacyclo[25.3.1.1˜9,12˜.1˜15,19˜.0˜3,8˜.0˜23,28˜]tritriaconta-3,5,7,9(33),11,15,17,23,25,27-decaene-2,13,32-trione], the “Bcl-2 FP, % at given concentration” value in experiment [1] (@1.1 μM) was 74.55% @1.1 μM. In experiment [2] (Homo sapiens, RS4-11, 48 h), this compound came in with an IC50 of 1330 nM.
In the case of `Cc1c2cc(n1C)-c1cc(Cl)ccc1C(=O)N1CCc3c(cccc3OCCCCCOc3ncc(cn3)N(c3ccc(O)cc3)C2=O)C1` [Example 40, 10-Chloro-2-(4-hydroxyphenyl)-5,6-dimethyl-24,30-dioxa-2,6,15,32,35-pentaazahexacyclo[29.2.2.1˜4,7˜.1˜15,19˜.0˜8,13˜.0˜8,23˜]heptatriaconta-1(33),4,7(37),8,10,12,18,20,22,31,34-undecuene-3,14-dione], the IC50 in experiment [1] came to 0.0064 µM; in experiment [2] (Homo sapiens, RS4-11, 48 h), 29.9 nM.
As for `Cc1c(N2C(=O)c3cc(n(C)c3C)-c3cc(Cl)ccc3C(=O)N3CCC(CCOc4cc(O)ccc42)CC3)cc(C#N)n1C` [Example 27, 4-[15-Chloro-3-hydroxy-18,19-dimethyl-12,21-dioxo-7,8,9,10,18,21-hexahydro-6H,12H,22H-8,11-ethano-20,17-(metheno)dibenzo[b,j][1,4,8,13]oxatriaza-cyclooctadecin-22-yl]-1,5-dimethyl-1H-pyrrole-2-carbonitrile], the IC50 in experiment [1] is 0.0098 µM; in experiment [2] (Homo sapiens, RS4-11, 48 h), 104 nM.
The corresponding values for `Cc1c2cc(n1C)-c1cc(Cl)ccc1C(=O)N1CCc3c(cccc3OCCCn3c(C#N)cc(c3C)N(c3ccc(O)cc3)C2=O)C1` [Example 8, 6-Chloro-14-(4-hydroxyphenyl)-10,11,32-trimethyl-2,13-dioxo-22-oxa-1,10,14,18-tetraazahexacyclo[25.3.1.1˜9,12˜.1˜15,18˜.0˜3,8˜.0˜23,28˜]tritriaconta-3,5,7,9(33),11,15(32),16,23,25,27-decaene-17-carbonitrile] are 0.00615 µM and 49.3 nM.
